Assay results published in the supplement of paper PMC10307832.

How the values were obtained:
Assay in all cases: relative viability (nuclei count vs DMSO), 5 days (fraction); higher = more cells survive
DM3189 + Vorinostat = compound: C1CN(CCN1)C2=CC=C(C=C2)C3=CN4C(=C(C=N4)C5=CC=NC6=CC=CC=C56)N=C3 [DM3189] + O=C(CCCCCCC(=O)Nc1ccccc1)NO [Vorinostat] (partner 1 µM)
Outline: (§1)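 Dosing by pin tool came one day after lung cancer cell lines were seeded in 1536-well plates, using either one drug or a fixed anchor-drug dose plus five library-drug doses (not always all listed) in √10 steps. After 5 days, nuclei were counted on 4× images. Relative viability is treated-well nuclei count divided by vehicle-well nuclei count, and values are medians of duplicate plates.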

DM3189 + OSI-027 = compound: C1CN(CCN1)C2=CC=C(C=C2)C3=CN4C(=C(C=N4)C5=CC=NC6=CC=CC=C56)N=C3 [DM3189] + COc1cccc2cc(-c3nc([C@H]4CC[C@H](C(=O)O)CC4)n4ncnc(N)c34)[nH]c12 [OSI-027] (partner 0.5 µM)
Outline: as §1

DM3189 + Trametinib = compound: C1CN(CCN1)C2=CC=C(C=C2)C3=CN4C(=C(C=N4)C5=CC=NC6=CC=CC=C56)N=C3 [DM3189] + CC(=O)Nc1cccc(-n2c(=O)n(C3CC3)c(=O)c3c(Nc4ccc(I)cc4F)n(C)c(=O)c(C)c32)c1 [Trametinib] (partner 0.02 µM)
Outline: as §1

DM3189 + AZD7762 = compound: C1CN(CCN1)C2=CC=C(C=C2)C3=CN4C(=C(C=N4)C5=CC=NC6=CC=CC=C56)N=C3 [DM3189] + NC(=O)Nc1cc(-c2cccc(F)c2)sc1C(=O)N[C@H]1CCCNC1 [AZD7762] (partner 0.2 µM)
Outline: as §1

DM3189 + Luminespib = compound: C1CN(CCN1)C2=CC=C(C=C2)C3=CN4C(=C(C=N4)C5=CC=NC6=CC=CC=C56)N=C3 [DM3189] + CCNC(=O)c1noc(-c2cc(C(C)C)c(O)cc2O)c1-c1ccc(CN2CCOCC2)cc1 [Luminespib] (partner 0.01 µM)
Outline: as §1

Row | Cell Line | relative viability (DM3189 + Vorinostat; first compound 0.08 µM) | relative viability (DM3189 + Vorinostat; first compound 0.253 µM) | relative viability (DM3189 + Vorinostat; first compound 0.8 µM) | relative viability (DM3189 + Vorinostat; first compound 2.53 µM) | relative viability (DM3189 + OSI-027; first compound 0.08 µM) | relative viability (DM3189 + OSI-027; first compound 0.253 µM) | relative viability (DM3189 + OSI-027; first compound 0.8 µM) | relative viability (DM3189 + OSI-027; first compound 2.53 µM) | relative viability (DM3189 + Trametinib; first compound 0.08 µM) | relative viability (DM3189 + Trametinib; first compound 0.253 µM) | relative viability (DM3189 + Trametinib; first compound 0.8 µM) | relative viability (DM3189 + Trametinib; first compound 2.53 µM) | relative viability (DM3189 + AZD7762; first compound 0.08 µM) | relative viability (DM3189 + AZD7762; first compound 0.253 µM) | relative viability (DM3189 + AZD7762; first compound 0.8 µM) | relative viability (DM3189 + AZD7762; first compound 2.53 µM) | relative viability (DM3189 + Luminespib; first compound 0.08 µM) | relative viability (DM3189 + Luminespib; first compound 0.253 µM) | relative viability (DM3189 + Luminespib; first compound 0.8 µM) | relative viability (DM3189 + Luminespib; first compound 2.53 µM)
1 | NCI-H2085 | 0.87 | 0.742 | 0.795 | 0.906 | 0.835 | 0.721 | 0.722 | 0.864 | 0.521 | 0.613 | 0.598 | 0.668 | 0.994 | 1.06 | 0.965 | 1.03 | 0.359 | 0.389 | 0.478 | 0.951
2 | NCI-H2087 | 0.63 | 0.49 | 0.682 | 0.471 | 0.718 | 0.462 | 0.449 | 0.601 | 0.24 | 0.17 | 0.228 | 0.219 | 1.42 | 1.23 | 1.38 | 1.1 | 0.187 | 0.145 | 0.139 | 0.176
3 | NCI-H2126 | 0.998 | 0.769 | 0.742 | 0.705 | 0.79 | 0.704 | 0.67 | 0.645 | 0.609 | 0.534 | 0.509 | 0.524 | 1.05 | 1.07 | 0.968 | 1.01 | 1.13 | 0.875 | 0.913 | 0.889
4 | NCI-H2170 | 0.921 | 0.811 | 0.725 | 0.658 | 0.863 | 0.76 | 0.768 | 0.686 | 1.09 | 0.96 | 0.835 | 0.825 | 0.933 | 0.884 | 0.875 | 0.652 | 0.939 | 0.836 | 0.762 | 0.764
5 | NCI-H2342 | 0.702 | 0.692 | 0.843 | 0.668 | 0.658 | 0.626 | 0.622 | 0.552 | 0.805 | 0.843 | 0.844 | 0.74 | 0.44 | 0.533 | 0.54 | 0.478 | 0.916 | 0.66 | 0.845 | 0.702
6 | NCI-H2347 | 0.554 | 0.626 | 0.61 | 0.658 | 0.486 | 0.337 | 0.455 | 0.335 | 0.28 | 0.262 | 0.276 | 0.31 | 0.726 | 0.779 | 0.723 | 0.733 | 0.671 | 0.504 | 0.565 | 0.485
7 | NCI-H2405 | 1.16 | 1 | 0.942 | 0.992 | 0.584 | 0.608 | 0.636 | 0.724 | 0.669 | 0.615 | 0.614 | 0.579 | 0.727 | 0.665 | 0.645 | 0.704 | 0.704 | 0.754 | 0.646 | 0.491
8 | NCI-H3122 | 0.992 | 0.74 | 0.841 | 1.11 | 1.16 | 0.916 | 0.909 | 1.04 | 0.19 | 0.205 | 0.181 | 0.217 | 0.978 | 0.964 | 0.912 | 0.816 | 0.0997 | 0.103 | 0.072 | 0.0922
9 | PC-3 [JPC-3] | 1.08 | 0.736 | 0.921 | 0.898 | 0.887 | 0.422 | 0.79 | 0.587 | 0.75 | 0.776 | 0.722 | 0.788 | 0.957 | 0.884 | 0.814 | 0.791 | 0.725 | 0.705 | 0.694 | 0.512
10 | PC-14 | 0.733 | 0.7 | 0.674 | 0.533 | 1.05 | 0.837 | 0.76 | 0.946 | 0.732 | 0.877 | 0.635 | 0.849 | 0.569 | 0.249 | 0.263 | 0.26 | 0.161 | 0.154 | 0.152 | 0.154
11 | RERF-LC-KJ | 0.858 | 0.729 | 0.661 | 0.715 | 0.666 | 0.59 | 0.586 | 0.601 | 1.03 | 0.95 | 0.927 | 0.986 | 1.51 | 1.11 | 1 | 0.964 | 1.37 | 1.3 | 1.46 | 1.19
12 | SW 900 | 0.469 |  | 0.442 | 0.383 | 0.618 | 0.544 | 0.584 | 0.606 | 0.818 |  | 0.832 | 0.941 | 0.574 |  | 0.515 | 0.645 | 0.174 | 0.166 | 0.156 | 0.196
